Test results published in patent US8030499B2, “1,3-dihydro-2H-indole-2-one compound and pyrrolidine-2-one compound fused with aromatic heterocycle” (Taisho Pharmaceutical Co., Ltd., priority 2005, dated 2011).

Tests used:
human V2 receptor = biological target: T1, human V2 receptor (Homo sapiens, UniProt P30518); test: V2 receptor binding assay ([3H](Arg8)-vasopressin, crude membranes of 293FT cells); settings: receptor binding test, human V2, 293FT cell membranes
T1 construct: expressed in transfected cells; host or cells: 293FT cells
T1 sequence (P30518 whole entry): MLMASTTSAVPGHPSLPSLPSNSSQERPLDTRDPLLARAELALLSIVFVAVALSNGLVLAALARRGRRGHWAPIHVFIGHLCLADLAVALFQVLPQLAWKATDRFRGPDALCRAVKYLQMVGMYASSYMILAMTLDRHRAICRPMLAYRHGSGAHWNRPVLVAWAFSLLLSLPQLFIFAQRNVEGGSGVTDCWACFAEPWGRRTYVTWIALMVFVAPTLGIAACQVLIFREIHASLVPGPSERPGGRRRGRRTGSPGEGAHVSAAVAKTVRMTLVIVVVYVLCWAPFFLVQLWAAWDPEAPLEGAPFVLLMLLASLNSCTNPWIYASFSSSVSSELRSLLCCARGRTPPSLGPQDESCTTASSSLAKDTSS
Description: (§1) A summary of the methods is given below.
(§2) Each obtained homogenate was centrifuged for 20 minutes at 50,000×g and 4° C., the sediment was resuspended in a 50 mmol/L Tris hydrochloric acid buffer solution (pH7.4, containing 10 mmol/L magnesium chloride and 0.1% bovine serum albumin), which served as a crude membrane preparation. This crude membrane preparation was added with [^3H] (Arg^8) vasopressin (final concentration: 0.1 nmol/L to 0.4 nmol/L), and each test drug (final concentration: 0.1 nmol/L to lμmol/L or 0.01 nmol/L to 0.1 μmol/L) to 22° C. for 90 minutes. After the end of the reaction, the reaction solution was filtrated using a GF/C glass fiber filter, which had been presoaked in 0.3% polyethyleneimine for two hours. After the GF/C glass fiber filter was dried sufficiently, scintillator was added, and the radioactivity on the filter was measured using a liquid scintillation counter. Binding of [^3H] (Arg^8)-vasopressin in the presence of (Arg^8)-vasopressin, in the amounts of 0.1 μmol/L in the V1b receptor binding assay and 5 μmol/L in the V1a and V2 receptor binding assay, were taken as non-specific binding, and the value obtained by subtracting non-specific binding from the total binding in the absence (Arg^8)-vasopressin served as specific binding.

human V1a receptor = biological target: T2, human V1a receptor (Homo sapiens, UniProt P37288); test: V1a receptor binding assay ([3H](Arg8)-vasopressin, crude membranes of 293FT cells); settings: receptor binding test, 293FT cell membranes
T2 construct: expressed in transfected cells; host or cells: 293FT cells
T2 sequence (P37288 whole entry): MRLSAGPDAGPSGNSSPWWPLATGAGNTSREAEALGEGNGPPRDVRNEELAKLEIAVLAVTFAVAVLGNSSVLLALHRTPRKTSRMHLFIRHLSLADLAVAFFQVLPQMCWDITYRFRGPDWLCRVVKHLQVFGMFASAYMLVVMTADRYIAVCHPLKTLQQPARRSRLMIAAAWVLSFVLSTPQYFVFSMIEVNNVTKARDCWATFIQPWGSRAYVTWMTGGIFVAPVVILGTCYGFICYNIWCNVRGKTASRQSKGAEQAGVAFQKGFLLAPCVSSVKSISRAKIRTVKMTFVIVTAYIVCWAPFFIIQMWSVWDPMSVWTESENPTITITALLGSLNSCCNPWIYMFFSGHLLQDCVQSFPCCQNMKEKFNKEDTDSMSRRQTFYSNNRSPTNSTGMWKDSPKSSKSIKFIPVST
Description: as §1, §2

human V1b receptor = biological target: T3, human V1b receptor (Homo sapiens, UniProt P47901); test: V1b receptor binding assay ([3H](Arg8)-vasopressin, crude membranes of CHO cells); settings: for IC50: receptor binding test, human V1b, CHO cell membranes; for inhibition at 0.1 µM: 0.1 μmol/L test drug, V1b receptor binding assay, read-out: Rate of inhibition (V1b: % of inhibition)
T3 construct: expressed in transfected cells; host or cells: CHO cells
T3 sequence (P47901 1-424): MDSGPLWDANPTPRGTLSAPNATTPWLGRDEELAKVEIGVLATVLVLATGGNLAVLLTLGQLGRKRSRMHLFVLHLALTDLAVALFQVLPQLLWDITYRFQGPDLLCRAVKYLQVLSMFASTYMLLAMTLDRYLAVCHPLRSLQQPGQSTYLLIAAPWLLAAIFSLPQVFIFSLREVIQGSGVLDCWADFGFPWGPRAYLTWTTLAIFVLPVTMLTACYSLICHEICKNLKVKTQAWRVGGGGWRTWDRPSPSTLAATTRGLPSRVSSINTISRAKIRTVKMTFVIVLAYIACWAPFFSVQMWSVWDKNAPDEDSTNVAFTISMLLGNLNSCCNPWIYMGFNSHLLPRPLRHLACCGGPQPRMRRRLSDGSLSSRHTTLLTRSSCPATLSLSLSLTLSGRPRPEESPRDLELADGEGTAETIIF
Description: as §1, §2
In addition, regarding the V1b receptor binding assay, the value obtained by, subtracting the amount of binding in the presence of 0.1 μmol/L test drug from the total amount of binding, divided by the amount of specific binding, served as the rate of inhibition (% of inhibition) of the test drug at the concentration tested.

Row | Structure (SMILES) | inhibition at 0.1 µM (human V1b receptor) [%] | also measured
1 | COc1ccc(S(=O)(=O)N2C(=O)C(c3cc(CCN4CCCCC4)ccc3OC)(N3C[C@H](O)C[C@H]3C(=O)N(C)C)c3cc(Cl)ccc32)c(OC(F)(F)F)c1 (single isomer, unassigned) [Example 225] |  | IC50 (human V2 receptor): 5050 nM; IC50 (human V1a receptor): 101 nM; IC50 (human V1b receptor): 0.32 nM
2 | COc1ccc(S(=O)(=O)N2C(=O)C(c3cc(C)ccc3OC)(N3C[C@H](O)C[C@H]3C(=O)N(C)C)c3cc(C#N)ccc32)c(OC(F)(F)F)c1 (single isomer, unassigned) [Example 126] |  | IC50 (human V2 receptor): > 10000 nM; IC50 (human V1a receptor): 8240 nM; IC50 (human V1b receptor): 15 nM
3 | COc1ccc(S(=O)(=O)N2C(=O)C(N[C@@H](C)C(=O)N(C)C)(c3ccccc3OC)c3cc(Cl)ccc32)c(OC(F)(F)F)c1 (single isomer, unassigned) [Example 61] |  | IC50 (human V2 receptor): > 10000 nM; IC50 (human V1a receptor): 1470 nM; IC50 (human V1b receptor): 15 nM
4 | COc1ccc(S(=O)(=O)N2C(=O)C(c3cc(C)ccc3OC)(N3CCCC[C@H]3C(=O)N(C)C)c3cc(Cl)ccc32)c(OC(F)(F)F)c1 (single isomer, unassigned) [Example 116] |  | IC50 (human V2 receptor): > 10000 nM; IC50 (human V1a receptor): 653 nM; IC50 (human V1b receptor): 2.9 nM
5 | COc1ccc(S(=O)(=O)N2C(=O)C(c3cc(C)ccc3OC)(N3C[C@H](O)C[C@H]3C(=O)N(CCO)CCO)c3cc(Cl)ccc32)c(OC(F)(F)F)c1 (stereo partly drawn) [Example 161, (4R)-1-(5-chloro-3-(2-methoxy-5-methylphenyl)-1-{[4-methoxy-2-(trifluoromethoxy)phenyl]sulfonyl}-2-oxo-2,3-dihydro-1H-indol-3-yl)-4-hydroxy-N,N-bis(2-hydroxyethyl)-L-prolinamide] | 78 | 
6 | COC(=O)[C@@H]1C[C@@H](O)CN1C1(c2ccccc2OC)C(=O)N(S(=O)(=O)c2ccc(OC)cc2OC(F)(F)F)c2ccc(Cl)cc21 (single isomer, unassigned) [Example 4] | 102 | 
7 | COc1ccc(S(=O)(=O)N2C(=O)C(c3cccc4c3OCC4)(N3CCCC[C@H]3C(=O)N(C)C)c3cc(Cl)ccc32)c(OC(F)(F)F)c1 (stereo partly drawn) [Example 90, (2S)-1-(5-chloro-3-(2,3-dihydro-1-benzofuran-7-yl)-1-{[4-methoxy-2-(trifluoromethoxy)phenyl]sulfonyl}-2-oxo-2,3-dihydro-1H-indol-3-yl)-N,N-dimethylpiperidine-2-carboxamide] | 97 | 
8 | COc1ccc(S(=O)(=O)N2C(=O)C(c3ccccc3OC)(N3c4ccccc4C[C@H]3C(=O)N(C)C)c3cc(Cl)ccc32)c(OC(F)(F)F)c1 (stereo partly drawn) [Example 40, (2S)-5′-chloro-3′-(2-methoxyphenyl)-1′-{[4-methoxy-2-(trifluoromethoxy)phenyl]sulfonyl}-N,N-dimethyl-2′-oxo-2,2′,3,3′-tetrahydro-1′H-1,3′-biindole-2-carboxamide] | 66 | 
9 | COc1ccc(C)cc1C1(N2C[C@H](O)C[C@H]2C(=O)N(C)C)C(=O)N(S(=O)(=O)c2ccc(OC)c(OC)c2OC)c2ccc(Cl)cc21 (single isomer, unassigned) [Example 176] | 97 | 
10 | CCN(C)CCCO[C@@H]1C[C@@H](C(=O)N(C)C)N(C2(c3cc(C)ccc3OC)C(=O)N(S(=O)(=O)c3ccc(OC)cc3OC(F)(F)F)c3ccc(Cl)cc32)C1 (stereo partly drawn) [Example 152, (4R)-1-(5-chloro-3-(2-methoxy-5-methylphenyl)-1-{[4-methoxy-2-(trifluoromethoxy)phenyl]sulfonyl}-2-oxo-2,3-dihydro-1H-indol-3-yl)-4-{3-[ethyl(methyl)amino]propoxy}-N,N-dimethyl-L-prolinamide] | 107 | 
11 | COc1ccc(S(=O)(=O)N2C(=O)C(N[C@@H](Cc3ccc(O)cc3)C(=O)N(C)C)(c3ccccc3OC)c3cc(Cl)ccc32)c(OC(F)(F)F)c1 (single isomer, unassigned) [Example 86] | 86 | 
12 | COc1ccc(S(=O)(=O)N2C(=O)C(c3cc(C)cnc3OC)(N3C[C@H](O)C[C@H]3C(=O)N(C)C)c3cc(Cl)ccc32)c(OC)c1OC (stereo partly drawn) [Example 173, (4R)-1-{5-chloro-3-(2-methoxy-5-methylpyridin-3-yl)-2-oxo-1-[(2,3,4-trimethoxyphenyl)sulfonyl]-2,3-dihydro-1H-indol-3-yl}-4-hydroxy-N,N-dimethyl-L-prolinamide] | 104 | 
13 | C=Cc1ccccc1C1(N2C[C@H](O)C[C@H]2C(=O)N(C)C)C(=O)N(S(=O)(=O)c2ccc(OC)cc2OC(F)(F)F)c2ccc(Cl)cc21 (single isomer, unassigned) [Example 104] | 94 | 
14 | COc1ccc(S(=O)(=O)N2C(=O)C(N[C@@H](Cc3ccncc3)C(=O)N(C)C)(c3ccccc3OC)c3cc(Cl)ccc32)c(OC(F)(F)F)c1 (single isomer, unassigned) [Example 83] | 72 | 
15 | COc1ccc(S(=O)(=O)N2C(=O)C(c3cc(C)ccc3OC)(N3C[C@H](OCCCN4CCN(C)CC4)C[C@H]3C(=O)N(C)C)c3cc(Cl)ccc32)c(OC(F)(F)F)c1 (stereo partly drawn) [Example 154, (4R)-1-(5-chloro-3-(2-methoxy-5-methylphenyl)-1-{[4-methoxy-2-(trifluoromethoxy)phenyl]sulfonyl}-2-oxo-2,3-dihydro-1H-indol-3-yl)-N,N-dimethyl-4-[3-(4-methylpiperazin-1-yl)propoxy]-L-prolinamide] | 100 | 

Further lines, with some results ahead:

Row | inhibition at 0.1 µM (human V1b receptor) [%] | Structure (SMILES) | also measured
16 | 93 | COc1ccc(S(=O)(=O)N2C(=O)C(c3cc(N(C)C)ccc3OC)(N3C[C@H](O)C[C@H]3C(=O)N(C)C)c3cc(Cl)ccc32)c(OC(F)(F)F)c1 (single isomer, unassigned) [Example 190] | 
17 | 89 | COc1ccc(S(=O)(=O)N2C(=O)C(c3cc(C)ccc3OC)(N3C[C@H](OCC(O)CO)C[C@H]3C(=O)N(C)C)c3cc(Cl)ccc32)c(OC(F)(F)F)c1 (stereo partly drawn) [Example 150, (4R)-1-(5-chloro-3-(2-methoxy-5-methylphenyl)-1-{[4-methoxy-2-(trifluoromethoxy)phenyl]sulfonyl}-2-oxo-2,3-dihydro-1H-indol-3-yl)-4-(2,3-dihydroxypropoxy)-N,N-dimethyl-L-prolinamide] | 
18 | 67 | COc1ccc(S(=O)(=O)N2C(=O)C(c3cc(C)ccc3OC)(N3C[C@H](O)C[C@H]3C(=O)N(C)C)c3cc(Cl)cnc32)c(OC(F)(F)F)c1 (single isomer, unassigned) [Example 118] | 
19 | 94 | COc1ccc(S(=O)(=O)N2C(=O)C(c3cc(C)ccc3OC)(N3C[C@H](OCC#N)C[C@H]3C(=O)N(C)C)c3cc(Cl)ccc32)c(OC(F)(F)F)c1 (single isomer, unassigned) [Example 146] | 
20 | 98 | COc1ccc(S(=O)(=O)N2C(=O)C(c3cc(CN4CCCC4)ccc3OC)(N3C[C@H](O)C[C@H]3C(=O)N(C)C)c3cc(Cl)ccc32)c(OC(F)(F)F)c1 (single isomer, unassigned) [Example 199] | 
21 | 92 | COC(=O)[C@@H]1C[C@@H](O)CN1C1(c2cc(C)ccc2OC)C(=O)N(S(=O)(=O)c2ccc(OC)cc2OC(F)(F)F)c2ccc(Cl)cc21 (single isomer, unassigned) [Example 135] | 
22 | 85 | COc1ccc(S(=O)(=O)N2C(=O)C(c3cc(C)ccc3OC)(N3C[C@H](OCC(=O)O)C[C@H]3C(=O)N(C)C)c3cc(Cl)ccc32)c(OC(F)(F)F)c1 (stereo partly drawn) [Example 148, ({(3R,5S)-1-(5-chloro-3-(2-methoxy-5-methylphenyl)-1-{[4-methoxy-2-(trifluoromethoxy)phenyl]sulfonyl}-2-oxo-2,3-dihydro-1H-indol-3-yl)-5-[(dimethylamino)carbonyl]pyrrolidin-3-yl}oxy)acetic acid] | 
23 | 96 | COc1ccc(S(=O)(=O)N2C(=O)C(c3cc(C)ccc3OC)(N3C[C@H](OC(C)=O)C[C@H]3C(=O)N(C)C)c3cc(Cl)ccc32)c(OC(F)(F)F)c1 (single isomer, unassigned) [Example 137] | 
24 | 102 | COc1ccc(S(=O)(=O)N2C(=O)C(c3cc(CCN(C)C)ccc3OC)(N3C[C@H](O)C[C@H]3C(=O)N(C)C)c3cc(Cl)ccc32)c(OC(F)(F)F)c1 (stereo partly drawn) [Example 221, (4R)-1-(5-chloro-3-{5-[2-(dimethylamino)ethyl]-2-methoxyphenyl}-1-{[4-methoxy-2-(trifluoromethoxy)phenyl]sulfonyl}-2-oxo-2,3-dihydro-1H-indol-3-yl)-4-hydroxy-N,N-dimethyl-L-prolinamide] | 
